# Measurements taken from the NIST ThermoML archive (doi:10.1021/je2000217).
# Numbers after ± are expanded uncertainties.
# Assay: cn = amount concentration of the nth substance listed, in mol/dm3
# Conditions: 100 kPa, Liquid; for viscosity: Capillary tube (Ostwald / Ubbelohde) method; for mass density: Vibrating tube method
smiles,measurement,setting,value
"CCCCCCCCCCCCCCCC[N+](C)(C)C.[Br-] [N,N,N-trimethyl-1-hexadecanaminium bromide] + O",viscosity,"298.15 K, c1 = 0.001",0.8978 ± 0.019 mPa·s
same,viscosity,"298.15 K, c1 = 0.003",0.9087 ± 0.019 mPa·s
same,viscosity,"298.15 K, c1 = 0.005",0.9213 ± 0.019 mPa·s
same,mass density,"298.15 K, c1 = 0.001",997.1 ± 0.4 kg/m3
same,mass density,"298.15 K, c1 = 0.003",997.3 ± 0.4 kg/m3
same,mass density,"298.15 K, c1 = 0.005",997.4 ± 0.4 kg/m3
same,viscosity,"308.15 K, c1 = 0.001",0.7436 ± 0.016 mPa·s
same,viscosity,"308.15 K, c1 = 0.003",0.7516 ± 0.016 mPa·s
same,viscosity,"308.15 K, c1 = 0.005",0.7596 ± 0.016 mPa·s
same,mass density,"308.15 K, c1 = 0.001",994.2 ± 0.4 kg/m3
same,mass density,"308.15 K, c1 = 0.003",994.3 ± 0.4 kg/m3
same,mass density,"308.15 K, c1 = 0.005",994.4 ± 0.4 kg/m3
same,viscosity,"318.15 K, c1 = 0.001",0.6173 ± 0.013 mPa·s
same,viscosity,"318.15 K, c1 = 0.003",0.6217 ± 0.013 mPa·s
same,viscosity,"318.15 K, c1 = 0.005",0.6349 ± 0.013 mPa·s
same,mass density,"318.15 K, c1 = 0.001",990.6 ± 0.4 kg/m3
same,mass density,"318.15 K, c1 = 0.003",990.7 ± 0.4 kg/m3
same,mass density,"318.15 K, c1 = 0.005",990.8 ± 0.4 kg/m3
